Results: patent EP4678638A1, “NEW E3 UBIQUITIN LIGASE LIGAND, PROTEIN DEGRADATION AGENT AND USE THEREOF” (priority 2023, dated 2024)

Key:
FAK = molecular target: T1, FAK (Homo sapiens, UniProt Q05397); assay: Western blot degradation of FAK; type: cell-based; conditions: Table D7
T1 construct: evaluate the effects of the compounds of the present disclosure on the expression of target proteins in cells; endogenous in cells
Procedure: Conventional Western blot assay was performed to evaluate the effects of the compounds of the present disclosure on the expression of target proteins in cells.
(1) Cell Seeding and Protein Harvesting: The selected cells were processed according to the cell seeding procedure and protein harvesting procedure in Table III-2. Table III-2 Cell Seeding and Protein Harvesting Procedures
(2) To the collected supernatant, 5X SDS sample loading buffer was added, followed by denaturation at 95°C for 5 minutes. The denatured samples were then separated by SDS-PAGE electrophoresis on a polyacrylamide gel. Proteins were transferred to a nitrocellulose membrane (0.45 µm NC membrane), blocked with blocking buffer at room temperature for 1 hour, and subjected to antibody incubation and development procedures according to the antibody manufacturer's instructions (Cell Signaling Technology).
Half-Maximal Degradation Concentration value (the drug concentration required for degrading proteins by 50%, abbreviated as DC50) reads method: comparing the grayscale values of Western blot bands from drug-treated samples with those from blank DMSO-treated controls, and identifying the drug concentration range at which the grayscale value is half that of the DMSO-treated control bands.
DC50 values can be calculated using ImageJ software to measure grayscale values of Western blot bands from drug-treated samples. The concentration-response curve is fitted to estimate the drug concentration corresponding to half the grayscale value.
Target protein remaining (%) refers to the percentage of target protein remaining in hPBMC cells after treatment with protein degrader compounds.
Calculation method for target protein remaining (%): Use ImageJ software to measure grayscale values of Western blot bands from drug (protein degrader)-treated samples. The grayscale value of drug-treated bands is divided by that of internal control protein bands, and the resulting quotient is normalized to obtain the relative percentage of remaining target protein after protein degrader treatment.
Target protein degradation rate (%) = 100% - target protein remaining (%).

SR = assay: CCK-8 proliferation, SR; type: cell-based, Human; conditions: Homo sapiens; Table B10, compounds designed based on the IRAK4 inhibitors; SR cells; read-out: Inhibitory activity (IC50, nM) on tumor cell proliferation, SR
Outline: (§1)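 Tumor cells were cultured at 37°C with 5% CO2, seeded, and after 24h treated with compounds at 10 concentrations starting at 10µM (5-fold serial dilutions).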

IRAK4 = molecular target: T2, IRAK4 (Homo sapiens, UniProt Q9NWZ3); assay: Western blot degradation of IRAK4 (hPBMC); type: cell-based; conditions: Table D1
T2 construct: evaluate the effects of the compounds of the present disclosure on the expression of target proteins in cells; endogenous in cells; host or cells: hPBMC
T2 sequence (Q9NWZ3 1-460): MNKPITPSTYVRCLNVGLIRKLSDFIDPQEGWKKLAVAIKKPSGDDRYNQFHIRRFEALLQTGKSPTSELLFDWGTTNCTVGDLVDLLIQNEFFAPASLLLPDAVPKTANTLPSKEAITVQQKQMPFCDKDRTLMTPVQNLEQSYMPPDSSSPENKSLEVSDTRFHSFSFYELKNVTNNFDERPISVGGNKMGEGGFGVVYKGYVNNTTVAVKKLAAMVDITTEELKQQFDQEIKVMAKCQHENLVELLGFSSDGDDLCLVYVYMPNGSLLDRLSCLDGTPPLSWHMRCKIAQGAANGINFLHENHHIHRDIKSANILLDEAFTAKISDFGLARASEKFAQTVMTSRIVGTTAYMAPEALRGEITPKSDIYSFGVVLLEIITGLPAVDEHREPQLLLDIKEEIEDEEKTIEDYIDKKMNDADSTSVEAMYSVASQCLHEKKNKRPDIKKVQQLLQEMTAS
Outline: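 After compound exposure, cells were harvested and lysates run on SDS-PAGE, transferred to nitrocellulose and probed with antibodies. Remaining target (%) was computed from band grayscale relative to an internal control protein and normalised; degradation (%) was 100% minus that.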

Jurkat = assay: CCK-8 proliferation, Jurkat; type: cell-based, Human; conditions: Homo sapiens; Table B10, compounds designed based on the IRAK4 inhibitors; Jurkat cells; read-out: Inhibitory activity (IC50, nM) on tumor cell proliferation, Jurkat
Procedure: The tumor cells used herein were cultured in a cell culture medium listed in table A1 at 37°C in an incubator with 5% CO2. Prior to experimentation, all cell lines used were correctly identified by STR profiling, and tested negative for mycoplasma contamination using a mycoplasma detection kit through routine screenings. Table A1. Tumor cells and cell culture medium used in the present disclosure
IC50 values of the compounds of the present disclosure (including the compounds in Table 1, and compounds of examples) were measured using the Meilun Cell Counting Kit-8 kit from Dalian Meilun Biotech Co., Ltd. Assay details are as follows: tumor cells were seeded in a 96-well plate at a density listed in Table A2. After 24h, 100 µL of the inoculated cells were treated with 0.5µL of the compounds of the present disclosure (including the compounds in Tables 1 and 2, and compounds of examples) at 10 different successively decreasing concentrations (starting at the highest concentration of 10µM; 5-fold serial dilutions). After the cells were treated with the compounds of the present disclosure for a period of time, the cell viability detection reagent was added to the culture medium for cell viability assessment according to the instructions provided with the CCK-8 kit. […] The growth inhibition of the compounds of the present disclosure on cells was plotted by Prism Graphpad software, and the IC50 values of the compounds of the present disclosure were calculated therefrom. […] Seeding protocol and treatment time for tumor cells

MM.1S = assay: CCK-8 proliferation, MM.1S; type: cell-based; conditions: Homo sapiens, MM1.S; Table B10, compounds designed based on the IRAK4 inhibitors; MM.1S cells; read-out: Inhibitory activity (IC50, nM) on tumor cell proliferation, MM.1S
Outline: as §1

T1 sequence (Q05397 whole entry, species assumed): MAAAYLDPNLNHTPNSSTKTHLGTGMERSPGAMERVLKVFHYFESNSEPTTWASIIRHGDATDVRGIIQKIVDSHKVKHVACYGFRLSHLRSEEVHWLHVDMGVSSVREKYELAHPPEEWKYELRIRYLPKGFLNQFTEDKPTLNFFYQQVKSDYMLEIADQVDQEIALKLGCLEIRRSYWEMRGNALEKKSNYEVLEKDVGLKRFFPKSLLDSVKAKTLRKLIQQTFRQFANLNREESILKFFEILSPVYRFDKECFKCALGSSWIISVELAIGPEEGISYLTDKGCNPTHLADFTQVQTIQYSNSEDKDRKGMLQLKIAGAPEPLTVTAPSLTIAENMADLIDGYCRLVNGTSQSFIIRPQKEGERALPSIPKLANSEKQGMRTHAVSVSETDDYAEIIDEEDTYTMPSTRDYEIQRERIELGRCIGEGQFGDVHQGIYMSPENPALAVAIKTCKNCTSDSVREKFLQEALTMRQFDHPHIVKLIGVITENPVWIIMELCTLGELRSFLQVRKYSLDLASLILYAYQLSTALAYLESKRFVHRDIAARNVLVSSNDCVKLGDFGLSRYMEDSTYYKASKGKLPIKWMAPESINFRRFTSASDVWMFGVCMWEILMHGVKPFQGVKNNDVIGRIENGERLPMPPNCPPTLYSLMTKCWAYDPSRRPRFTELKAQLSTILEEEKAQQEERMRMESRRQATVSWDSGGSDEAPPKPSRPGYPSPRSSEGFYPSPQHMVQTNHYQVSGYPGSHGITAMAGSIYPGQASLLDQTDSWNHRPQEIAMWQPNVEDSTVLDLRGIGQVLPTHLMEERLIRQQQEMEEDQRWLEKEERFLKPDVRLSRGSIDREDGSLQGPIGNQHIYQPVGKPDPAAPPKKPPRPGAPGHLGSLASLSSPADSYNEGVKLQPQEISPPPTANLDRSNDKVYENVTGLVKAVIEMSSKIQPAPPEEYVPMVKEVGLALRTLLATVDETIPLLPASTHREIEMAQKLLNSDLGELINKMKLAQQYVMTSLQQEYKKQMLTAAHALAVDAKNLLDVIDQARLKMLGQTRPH

CS(=O)(=O)c1cccc(CNc2nc(Nc3ccc(N4CCN(Cc5ccc(C6CCC(=O)NC6=O)cc5)CC4)cc3)ncc2C(F)(F)F)c1 (stereo not drawn) [GT-03822, 3-(4-((4-(4-((4-((3-(methylsulfonyl)benzyl)amino)-5-(trifluoromethyl)pyrimidin-2-yl)amino)phenyl)piperazin-1-yl)methyl)phenyl)piperidine-2,6-dione]
Degradation of substrate protein FAK (substrate protein remaining %) (FAK): A (A is defined as 0% ≤ substrate protein remaining % ≤ 80%)

CS(=O)(=O)c1cccc(CNc2nc(Nc3ccc(N4CCN(Cc5ccc(C6CCC(=O)NC6=O)c(F)c5)CC4)cc3)ncc2C(F)(F)F)c1 (stereo not drawn) [GT-03823, 3-(2-fluoro-4-((4-(4-((4-((3-(methylsulfonyl)benzyl)amino)-5-(trifluoromethyl)pyrimidin-2-yl)amino)phenyl)piperazin-1-yl)methyl)phenyl)piperidine-2,6-dione]
Degradation of substrate protein FAK (substrate protein remaining %) (FAK): A (A is defined as 0% ≤ substrate protein remaining % ≤ 80%)

CNC(=O)c1ccccc1Nc1cc(Nc2cc(C)c(N3CCN(Cc4ccc(C5CCC(=O)NC5=O)c(F)c4)CC3)cc2OC(C)C)ncc1C(F)(F)F (stereo not drawn) [GT-03947, 2-((2-((4-(4-(4-(2,6-dioxopiperidin-3-yl)-3-fluorobenzyl)piperazin-1-yl)-2-isopropoxy-5-methylphenyl)amino)-5-(trifluoromethyl)pyridin-4-yl)amino)-N-methylbenzamide]
Degradation of substrate protein FAK (substrate protein remaining %) (FAK): A (A is defined as 0% ≤ substrate protein remaining % ≤ 80%)

CNC(=O)c1ccccc1Nc1cc(Nc2cc(C)c(C3CCN(Cc4ccc(C5CCC(=O)NC5=O)cc4)CC3)cc2OC(C)C)ncc1C(F)(F)F (stereo not drawn) [GT-04084, 2-((2-((4-(1-(4-(2,6-dioxopiperidin-3-yl)benzyl)piperidin-4-yl)-2-isopropoxy-5-methylphenyl)amino)-5-(trifluoromethyl)pyridin-4-yl)amino)-N-methylbenzamide]
Degradation of substrate protein FAK (substrate protein remaining %) (FAK): A (A is defined as 0% ≤ substrate protein remaining % ≤ 80%)

CNC(=O)c1ccccc1Nc1cc(Nc2cc(C)c(C3CCN(Cc4ccc(C5CCC(=O)NC5=O)c(F)c4)CC3)cc2OC(C)C)ncc1C(F)(F)F (stereo not drawn) [GT-04085, 2-((2-((4-(1-(4-(2,6-dioxopiperidin-3-yl)-3-fluorobenzyl)piperidin-4-yl)-2-isopropoxy-5-methylphenyl)amino)-5-(trifluoromethyl)pyridin-4-yl)amino)-N-methylbenzamide]
Degradation of substrate protein FAK (substrate protein remaining %) (FAK): A (A is defined as 0% ≤ substrate protein remaining % ≤ 80%)

CS(=O)(=O)c1cccc(CNc2nc(Nc3ccc(N4CCN(Cc5cccc(N6CCC(=O)NC6=O)c5)CC4)cc3)ncc2C(F)(F)F)c1 [GT-04178, 1-(3-((4-(4-((4-((3-(methylsulfonyl)benzyl)amino)-5-(trifluoromethyl)pyrimidin-2-yl)amino)phenyl)piperazin-1-yl)methyl)phenyl)dihydropyr imidine-2,4(1H,3H)-dione]
Degradation of substrate protein FAK (substrate protein remaining %) (FAK): A (A is defined as 0% ≤ substrate protein remaining % ≤ 80%)

O=C1CCC(Nc2cccc(CN3CCC(N4CCN(c5ccc6c(c5)nc(NC(=O)c5cccc(C(F)(F)F)c5)n6[C@H]5CC[C@@H](CO)CC5)CC4)CC3)c2)C(=O)N1 (stereo partly drawn) [GT-05023, N-(5-(4-(1-(3-((2,6-dioxopiperidin-3-yl)amino)benzyl)piperidin-4-yl)piperazin-1-yl)-1-((1s,4s)-4-(hydroxymethyl)cyclohexyl) -1H-benzo[d]imidazol-2-yl)-3-(trifluoromethyl)benzamide]
IC50 (SR): 500 to 1000 nM | Degradation of substrate protein IRAK4 (substrate protein remaining %) (IRAK4): A (A is defined as 0% ≤ substrate protein remaining % ≤ 80%) | IC50 (Jurkat): 500 to 1000 nM | IC50 (MM.1S): 500 to 1000 nM

CN(c1nccnc1CNc1nc(Nc2ccc(N3CCN(Cc4ccc(N5CCC(=O)NC5=O)cc4)CC3)cc2)ncc1C(F)(F)F)S(C)(=O)=O [GT-07400, N-(3-(((2-((4-(4-(4-(2,4-dioxotetrahydropyrimidin-1(2H)-yl)benzyl)piperazin-1-yl)phenyl)amino)-5-(trifluoromethyl)pyrimidin-4-yl)amino)methyl)pyrazin-2-yl)-N-methylmethanesulfonamide]
Degradation of substrate protein FAK (substrate protein remaining %) (FAK): A (A is defined as 0% ≤ substrate protein remaining % ≤ 80%)

CN(c1nccnc1CNc1nc(Nc2ccc(N3CCN(Cc4cccc(N5CCC(=O)NC5=O)c4)CC3)cc2)ncc1C(F)(F)F)S(C)(=O)=O [GT-07401, N-(3-(((2-((4-(4-(3-(2,4-dioxotetrahydropyrimidin-1(2H)-yl)benzyl)piperazin-1-yl)phenyl)amino)-5-(trifluoromethyl)pyrimidin-4-yl)amino)methyl)pyrazin-2-yl)-N-methylmethanesulfonamide]
Degradation of substrate protein FAK (substrate protein remaining %) (FAK): A (A is defined as 0% ≤ substrate protein remaining % ≤ 80%)

CN(c1nccnc1CNc1nc(Nc2ccc(N3CCN(Cc4cc(N5CCC(=O)NC5=O)ncc4F)CC3)cc2)ncc1C(F)(F)F)S(C)(=O)=O [GT-07405, N-(3-(((2-((4-(4-((2-(2,4-dioxotetrahydropyrimidin-1(2H)-yl)-5-fluoropyridin-4-yl)methyl)piperazin-1-yl)phenyl)amino)-5-(trifluoromethyl)pyrimidin-4-yl)amino)methyl)pyrazin-2-yl)-N-methylmethanesulfonamide]
Degradation of substrate protein FAK (substrate protein remaining %) (FAK): A (A is defined as 0% ≤ substrate protein remaining % ≤ 80%)

CN(c1nccnc1CNc1nc(Nc2ccc(N3CCN(Cc4ccnc(N5CCC(=O)NC5=O)c4)CC3)cc2)ncc1C(F)(F)F)S(C)(=O)=O [GT-07406, N-(3-(((2-((4-(4-((2-(2,4-dioxotetrahydropyrimidin-1(2H)-yl)pyridin-4-yl)methyl)piperazin-1-yl)phenyl)amino)-5-(trifluoromethyl)pyrimidin-4-yl)amino)methyl)pyrazin-2-yl)-N-methylmethanesulfonamide]
Degradation of substrate protein FAK (substrate protein remaining %) (FAK): A (A is defined as 0% ≤ substrate protein remaining % ≤ 80%)

CS(=O)(=O)c1cccc(CNc2nc(Nc3ccc(N4CCN(Cc5ccnc(N6CCC(=O)NC6=O)c5)CC4)cc3)ncc2C(F)(F)F)c1 [GT-07462, 1-(4-((4-(4-((4-((3-(methylsulfonyl)benzyl)amino)-5-(trifluoromethyl)pyrimidin-2-yl)amino)phenyl)piperazin-1-yl)methyl)pyridin-2-yl)dihydropyrimidine-2,4(1H,3H)-dione]
Degradation of substrate protein FAK (substrate protein remaining %) (FAK): A (A is defined as 0% ≤ substrate protein remaining % ≤ 80%)
